# Measured values reported in patent publication US12692241B2, “Substituted triazine compound” (Nico Therapeutics, Inc., priority 2021, dated 2026).
# Where a name gives a salt, the structure may show the parent alone.
# System: IL-1β production in THP-1 cells (LPS and ATP; NLRP3 inflammasome activation)
# Test: THP-1 IL-1β production inhibitory test
# Format: cell-based, human
# Conditions: Homo sapiens, THP-1, 2 h, PMA-differentiated THP-1 cells, LPS 50 ng/mL and ATP 5 mM, 2 hours, ELISA; read-out: IC50 (nM), IL-1β production
# Protocol: THP-1 IL-1β Production Inhibitory Test
# To THP-1 cells, 50 ng/mL PMA (phorbol myristate acetate, SIGMA, P1585) was added at 37° C. and then the cells were cultured for 2 days. […] The cells were cultured at 37° C. for 15 minutes. LPS (lipopolysaccharide, SIMGA, L2880) and ATP (adenosine triphosphate, SIGMA, A2383) were added such that the final concentrations of them became 50 ng/mL and 5 mM, respectively. The cells were cultured at 37° C. for 2 hours. The supernatant was collected and the concentration of IL-1β was measured by ELISA (DuoSet ELISA human IL-1β, R&D Systems, DY201). The concentration of IL-1β was plotted against the logarithm of the concentration of the test compound, and the IC50 value was calculated by sigmoidal Emax model nonlinear regression analysis.
row,IC50,SMILES
1,34 nM,Cc1nc(N[C@H]2CCCC[C@H]2O)nnc1-c1ccc(C(F)(F)F)cc1O [Example 20]
2,62 nM,Cc1nc(N[C@H]2CC[C@]2(C)O)nnc1-c1ccc(C(F)(F)F)cc1O [Example 64]
3,91 nM,CC(=O)NCCC1(CNc2nnc(-c3ccc(C(F)(F)F)cc3O)c(C)n2)CCC1 [Example 104]
4,23 nM,Cc1nc(NC2(CO)CCC2)nnc1-c1ccc(C(F)(F)F)cc1O [Example 23]
5,48 nM,Cc1nc(N[C@@H]2CCCC[C@H]2N(C)C)nnc1-c1ccc(C(F)(F)F)cc1O [Example 177]
6,54 nM,C[C@@]1(O)CCCC[C@H]1Nc1nnc(-c2ccc(Cl)cc2O)c(C2CC2)n1 [Example 123]
7,23 nM,Cc1nc(N[C@@H]2CCC[C@@H](O)C2)nnc1-c1ccc(C(F)(F)F)cc1O [Example 166]
8,21 nM,Cc1ccc(-c2nnc(N[C@@H]3CCOC[C@H]3O)nc2C)c(O)c1 [Example 52]
9,25 nM,Cc1nc(Nc2ccn(C[C@@H](C)O)n2)nnc1-c1ccc(C(F)(F)F)cc1O [Example 107]
10,6.7 nM,Cc1cc(C(F)(F)F)cc(O)c1-c1nnc(N[C@@H]2CCCC[C@H]2O)nc1C [Example 165]
11,50 nM,Cc1nc(N[C@@H]2CC[C@H](O)C2)nnc1-c1ccc(C(F)(F)F)cc1O [Example 35]
12,370 nM,CC(=O)N1CCO[C@@H](CNc2nnc(-c3ccc(C(F)(F)F)cc3O)c(C)n2)C1 [Example 155]
13,8.5 nM,Oc1cc(Cl)ccc1-c1nnc(N[C@@H]2CCCC[C@H]2O)nc1C1CC1 [Example 115]
14,180 nM,Cc1nc(N[C@H]2CN(C)CCC2(F)F)nnc1-c1ccc(C(F)(F)F)cc1O [Example 180]
15,40 nM,CO[C@H](C)CNc1nnc(-c2ccc(C(F)(F)F)cc2O)c(C)n1 [Example 10]
16,690 nM,Cc1nc(NCCC2(CN)CCC2)nnc1-c1ccc(C(F)(F)F)cc1O [Example 139]
17,63 nM,Cc1nc(N[C@@H]2CCCC[C@H]2O)nnc1-c1ccc(F)cc1O [Example 53]
18,23 nM,"Cc1nc(Nc2cn[nH]c2)nnc1-c1ccc(C(F)(F)F)cc1O [Example 149, 2-{5-methyl-3-[(1H-pyrazol-4-yl)amino]-1,2,4-triazin-6-yl}-5-(trifluoromethyl)phenol]"
19,39 nM,Cc1nc(N[C@@H]2CCCC[C@H]2N)nnc1-c1ccc(OC(F)(F)F)cc1O [Example 145]
20,28 nM,Cc1nc(N[C@@H]2CCCNC2=O)nnc1-c1ccc(C(F)(F)F)cc1O [Example 42]
21,16 nM,Cc1nc(N[C@@H]2CCCCC[C@H]2O)nnc1-c1ccc(C(F)(F)F)cc1O [Example 76]
22,88 nM,Cc1nc(N[C@@H]2COC[C@H]2O)nnc1-c1ccc(C(F)(F)F)cc1O [Example 16]
23,150 nM,Cc1nc(Nc2ccn(C)n2)nnc1-c1ccc(C(F)(F)F)cc1O [Example 97]
24,17 nM,Oc1cc(C(F)(F)F)ccc1-c1nnc(N[C@@H]2CCCC[C@H]2O)nc1C1CC1 [Example 109]
25,66 nM,Cc1nc(NCC2(O)CCC2)nnc1-c1ccc(C(F)(F)F)cc1O [Example 17]

row,IC50,SMILES
1,35 nM,Cc1nc(N[C@@H]2CCCN(C3CNC3)C2)nnc1-c1ccc(C(F)(F)F)cc1O [Example 172]
2,52 nM,Cc1nc(NCC2CC2)nnc1-c1ccc(C(F)(F)F)cc1O [Example 91]
3,53 nM,Cc1nc(Nc2ccn(CCO)n2)nnc1-c1ccc(C(F)(F)F)cc1O [Example 90]
4,9.6 nM,Cc1nc(N[C@@H]2CCCC[C@H]2O)nnc1-c1ccc(C2CC2)cc1O [Example 67]
5,53 nM,Cc1nc(NC2CCS(=O)(=O)CC2)nnc1-c1ccc(C(F)(F)F)cc1O [Example 12]
6,130 nM,Cc1nc(NCCC#N)nnc1-c1ccc(C(F)(F)F)cc1O [Example 101]
7,57 nM,Cc1nc(NC[C@H](O)C(F)(F)F)nnc1-c1ccc(C(F)(F)F)cc1O [Example 68]
8,630 nM,Cc1nc(NCc2cccnn2)nnc1-c1ccc(C(F)(F)F)cc1O [Example 28]
9,23 nM,CC(=O)N[C@H]1C[C@H](CNc2nnc(-c3ccc(C(F)(F)F)cc3O)c(C)n2)C1 [Example 156]
10,8.2 nM,Cc1ccc(-c2nnc(N[C@H]3CCNC3=O)nc2C)c(O)c1 [Example 71]
11,95 nM,Cc1nc(N[C@@H]2CCNC2)nnc1-c1ccc(C(F)(F)F)cc1O [Example 133]
12,38 nM,COc1ccc(-c2nnc(N[C@H]3C[C@@](C)(O)C3)nc2C)c(O)c1 [Example 60]
13,410 nM,Cc1nc(NCCN2CCOCC2)nnc1-c1ccc(C(F)(F)F)cc1O [Example 95]
14,7 nM,Cc1nc(N[C@H]2CCNC2=O)nnc1-c1ccc(C(F)(F)F)cc1O [Example 44]
15,130 nM,Cc1nc(NCC(F)F)nnc1-c1ccc(C(F)(F)F)cc1O [Example 87]
16,57 nM,Cc1nc(NCC(C)(C)O)nnc1-c1ccc(C(F)(F)F)cc1O [Example 85]
17,640 nM,"CC(=O)N1C[C@@H](O)[C@H](Nc2nnc(-c3ccc(C(F)(F)F)cc3O)c(C)n2)C1 [Example 163, 1-[(3R,4R)-3-hydroxy-4-({6-[2-hydroxy-4-(trifluoromethyl)phenyl]-5-methyl-1,2,4-triazin-3-yl}amino)pyrrolidin-1-yl]ethan-1-one]"
18,38 nM,Cc1nc(NC[C@@H]2CCCN2)nnc1-c1ccc(C(F)(F)F)cc1O [Example 134]
19,15 nM,C[C@@]1(O)CCCC[C@H]1Nc1nnc(-c2ccc(C(F)(F)F)cc2O)c(C2CC2)n1 [Example 122]
20,150 nM,Cc1nc(N[C@H]2CNC(=O)C2)nnc1-c1ccc(C(F)(F)F)cc1O [Example 66]
21,12 nM,Cc1nc(N[C@@H]2CCOC[C@@]2(C)O)nnc1-c1ccc(C(F)(F)F)cc1O [Example 80]
22,67 nM,Cc1nc(N[C@H]2C[C@@](C)(O)C2)nnc1-c1ccc(C2CC2)cc1O [Example 77]
23,38 nM,Cc1nc(N[C@@H]2CCC[C@H](O)C2)nnc1-c1ccc(OC(F)(F)F)cc1O [Example 84]
24,12 nM,"Cc1nc(N[C@@H]2CCCN(CCC#N)C2)nnc1-c1ccc(C(F)(F)F)cc1O [Example 181, 3-[(3R)-3-({6-[2-hydroxy-4-(trifluoromethyl)phenyl]-5-methyl-1,2,4-triazin-3-yl}amino)piperidin-1-yl]propanenitrile]"
25,12 nM,CC(=O)NCCCCNc1nnc(-c2ccc(C(F)(F)F)cc2O)c(C)n1 [Example 86]

row,IC50,SMILES
1,37 nM,C[C@@]1(O)CCCC[C@H]1Nc1nnc(-c2ccc(OC(F)(F)F)cc2O)c(C2CC2)n1 [Example 124]
2,14 nM,Cc1nc(N[C@@H]2CCCC[C@@H](O)C2)nnc1-c1ccc(C(F)(F)F)cc1O [Example 79]
3,31 nM,CC(=O)N1CCC[C@@H](Nc2nnc(-c3ccc(C(F)(F)F)cc3O)c(C)n2)C1 [Example 154]
4,14 nM,Cc1nc(N[C@H]2C[C@@](C)(O)C2)nnc1-c1ccc(Cl)cc1O [Example 49]
5,7.4 nM,Cc1nc(N[C@@H]2CCCC[C@H]2O)nnc1-c1ccc(Cl)cc1O [Example 19]
6,58 nM,Cc1nc(NC2CCC(C(N)=O)NC2)nnc1-c1ccc(C(F)(F)F)cc1O (stereo not drawn) [Example 173]
7,26 nM,CC(=O)NC[C@H]1C[C@H](Nc2nnc(-c3ccc(C(F)(F)F)cc3O)c(C)n2)C1 [Example 106]
8,17 nM,Cc1nc(N[C@@H]2CCCC[C@H]2O)nnc1-c1ccc(C(C)C)cc1O [Example 36]
9,240 nM,Cc1nc(NCC2(N)CCOCC2)nnc1-c1ccc(C(F)(F)F)cc1O [Example 171]
10,9.3 nM,Cc1nc(N[C@@H]2CCCC[C@@]2(C)O)nnc1-c1ccc(OC(F)(F)F)cc1O [Example 58]
11,580 nM,Cc1nc(N[C@H]2CCC[C@@H](O)C2)nnc1-c1ccc(C(F)(F)F)cc1O [Example 167]
12,81 nM,Cc1nc(NCC2CCCCO2)nnc1-c1ccc(C(F)(F)F)cc1O (stereo not drawn) [Example 96]
13,350 nM,Cc1nc(N[C@@H]2CN(C)C[C@H]2O)nnc1-c1ccc(C(F)(F)F)cc1O [Example 162]
14,1500 nM,Cc1nc(N[C@H]2CCCNC2)nnc1-c1ccc(C(F)(F)F)cc1O [Example 137]
15,30 nM,Cc1nc(N[C@@H]2CCC(F)(F)C[C@H]2O)nnc1-c1ccc(C(F)(F)F)cc1O [Example 69]
16,26 nM,Cc1nc(NC2CCCCC2)nnc1-c1ccc(C(F)(F)F)cc1O [Example 6]
17,43 nM,C[C@]1(O)C[C@@H](Nc2nnc(-c3ccc(Cl)cc3O)c(C3CC3)n2)C1 [Example 121]
18,33 nM,O=C1NCC[C@@H]1Nc1nnc(-c2ccc(Cl)cc2O)c(C2CC2)n1 [Example 125]
19,6.4 nM,Cc1nc(N[C@H]2C[C@@H](CO)C2)nnc1-c1ccc(C(F)(F)F)cc1O [Example 100]
20,28 nM,Cc1ccc(-c2nnc(N[C@@H]3CCCC[C@H]3N)nc2C)c(O)c1 [Example 147]
21,19 nM,Cc1ccc(-c2nnc(N[C@@H]3CCCC[C@H]3O)nc2C2CC2)c(O)c1 [Example 117]
22,12 nM,Cc1nc(NC[C@@H](C)O)nnc1-c1ccc(C2CC2)cc1O [Example 56]
23,26 nM,COc1ccc(-c2nnc(N[C@@H]3CCC[C@H](O)C3)nc2C)c(O)c1 [Example 168]
24,280 nM,Oc1cc(C(F)(F)F)ccc1-c1nnc(N[C@@H]2CCCC[C@H]2O)nc1-c1ccccc1 [Example 98]

# Same assay, conditions: Homo sapiens, THP-1, 2 h, read-out: IC50 (nM), IL-1β production
row,SMILES,IC50
1,"COc1ccc(-c2nnc(N[C@@H]3CCCC[C@H]3O)nc2C)c(O)c1 [Example 184, 2-(3-{[(1R,2R)-2-hydroxycyclohexyl]amino}-5-methyl-1,2,4-triazin-6-yl)-5-methoxyphenol monohydrochloride]",5.8 nM
